{"source": "patent US20200001302A1", "about": "“MICROFLUIDIC DEVICES, SYSTEMS, INFRASTRUCTURES, USES THEREOF AND METHODS FOR GENETIC ENGINEERING USING SAME” (VALORBEC, SOCIÉTÉ EN COMMANDITE, priority 2018, published 2020)", "molecules": {"B1": {"name": "beta-glucosidase: β-glucosidase (BGL) from Thermobaculum terrenum in BL21(DE3) cell lysate, plasmid pET_BGL1 of Example 1 (protein, listed as Thermobaculum terrenum)", "chain": "MKHLVTTLLFGLVFAAAVRAQSSRVDSLLAAMTLAEKISLLHGAIDPTGEAGAGYVPGVPRLGIPAMRLTDGPAGIRTRHPATALPAPVALAASFDPELAYRYGHVMGIEGRARRHEVLLSPMVNIVRVPEAGRNFETFSEDPLLSAEMVAAEVRGIQDAGMMATVKHYVANNFENDRMRVNVVVDERTLREIYLPGFEAAIKAGAAAVMCAYNRVNGPYACDNEMLLTDILRDEWGFEGWVMTDWFAGHSLESLVRGLDQEMPGYTIPFSSPDMPLAPAVFADSLLAAVESGRIDEAYVDRAVRRILVQMEQFGLLDGESTPPEINIEAHAAVAREVAEAGAVLLRNENQTLPLSERDLQHLVVIGPTATRPLIGGGGSSRVQPFRTTSTLAALQELAGPQAQIRYVPGIDLDGMPVPSSALRTPDGQPGLLRQGADGTTQVDAQLDFTGERALPPGSQWTWTGTLTAPTAGVYELKLQTAGGVGTLSIDGQPVLRTGMFFSDASLIPTADSLENATYRIELQAGQQLSLTVQISGQVPSLPFLPAGQNPVQVRLAWVTPERRAAFLEEAAEAARAAHAAIVFVYEEGTEGRDRETLALRPDQDALVEAVAAANPRTTVVMNVGAPTLMPWAERVGAILLMWYPGQEGGWATADVLLGRANPAGRLPVTFPRRAEDAPTASPERYPGVDLTARYDEGIFVGYRWYDAQQIEPLFPFGHGLSYTTFAYENLRVEPDGDGFVVRFVVRNTGDRAGSDVPQVYLGPPENPPVPMAVRQLVGFRRVTLAPGEAQEVTVRIDGRALSYWSVEDHAWVKATGRRTLYVGASARDLRLQTEIDVQ"}}, "key": {"[1]": {"system": "RFP gene downstream of a T7 promoter in E. coli", "test": "IPTG inducer concentration optimization, RFP expression dose-response (AIMS and macro-scale)", "format": "cell-based", "conditions": "after four hours", "experimental": "For inducer concentration optimization carried out in the macroscale, starter cultures with a RFP plasmid were prepared at OD 0.1 from overnight inoculations. The cultures were grown at 37° C. with shaking and were induced upon reaching OD 0.4. 45 mL of the culture was induced at 200 micromolar and diluted with fresh media to generate the following IPTG concentrations: 200, 133.3, 88.9, 59.3, 40, 26.7, 17.8, and 11.9 micromolar. These sub-cultures were prepared in triplicates along with a non-induced control and were induced at 37° C. and shaken for 4 hours. After induction, 200 microliters of each culture were loaded onto a 96-well plate and fluorescence at 612 nm was measured with 582 nm excitation on a TECAN Infinite M200 plate reader (Mannedorf, Switzerland) with the settings: gain of 75, 25 flashes and 20 microseconds integration time. The fluorescence intensity with increasing IPTG concentration was plotted on a logarithmic scale to generate a dose-response curve.\nIn the inducer concentration optimization program, three unit droplets of 1.42 microliters containing transformed RFP-cells were dispensed from the culture region and mixed with 0.3 microliters of 3.24 mM IPTG. This droplet was actuated to an empty reservoir and one daughter droplet was split from this reservoir and actuated to the incubation region. […]"}, "H1299 cells [2]": {"system": "H1299 cells", "test": "On-chip (ACE digital microfluidic) sorafenib dose-response, cell viability by Calcein-AM cell count", "format": "cell-based, Human", "conditions": "for IC50: Homo sapiens", "source_text": "Similarly, in the microscale, the transfection protocol is followed for seeding cells and the 7-step protocol for transfection of the pCRISPR plasmid containing sgRNA targeting eGFP or Raf-1. The standard step 7 was replaced with step 7a and step 7b. In step 7a, sorafenib tosylate in complete media was actively dispensed into unit droplets and then diluted in liquid media to form six different concentrations (0 micromolar, 7.5 micromolar, 15 micromolar, 30 micromolar, 60 micromolar, 120 micromolar) of which one droplet (0.7 microliters) was used to passively dispense onto each hydrophilic spot and the other droplet was saved for future dilutions. After all cells were interrogated with the drugs, they were incubated for two days. In step 7b, six unit droplets of 5 micromolar Calcein-AM violet stain were passively dispensed to the cells and incubated for 30 min in which images were taken to count the cells using a single module imaging pipeline. Calcein-stained image was smoothed with a Gaussian filter (G, sigma=1) and used the Otsu Global thresholding method to detect objects with diameters of 20-100 pixel units (two classes, threshold correction factor=1.25). Neighboring pixels are grouped into objects and undesired clumped objects (e.g., two close overlapping objects) are declumped using intensity segregation. The counted cells were normalized to the control (e.g., cell interrogated with no drugs). All curves were fit with a sigmoid function and probed for statistical significance using an F-test in the linear region.\nTo verify the effects of targeting RAF1 by genome editing and enzymatic inhibition, H1299 cells were cultured, edited, assayed, and analyzed on the ACE platform following procedures for measuring transfection and knockout efficiencies. Images of the lung cancer cells that are transfected with and without pCRISPR targeting RAF1 and treated with the sorafenib inhibitor are analysed using the standardized imaging pipeline (FIG. 39B, FIG. 51). […] The effects of RAF protein kinase inhibitor sorafenib tosylate with and without CRISPR-mediated RAF1 targeting were examined."}, "H1299 cells [3]": {"system": "H1299 cells", "test": "Cell viability over 7 days after RAF1 gene editing and sorafenib tosylate (FIG. 50)", "format": "cell-based, Human", "conditions": "cells with both pCRISPR targeting RAF1 and 15 micromolar sorafenib tosylate added on day 2; after day 4", "experimental": "MAPK/ERK pathway experiments. The MAPK/ERK pathway experiments used two key components: CRISPR-Cas9 genomic disruption of Raf1 and drug inhibition using sorafenib tosylate. In the macroscale, 0.75×10^5 cells/mL of H1299 cells were seeded on day 0 in 24-well plates. 600 ng of the pCRISPR plasmid targeting eGFP (control) or RAF1 was applied to the wells containing the cells on day 1. On day 3, drug conditions were added at different concentrations: 0 micromolar, 7.5 micromolar, 15 micromolar, 30 micromolar, 60 micromolar, 120 micromolar which were diluted in complete media. On day 5, 5 micromolar Calcein-AM violet stain (λex, lambda(ex)=408 nm and λem, lambda(em)=450 nm) diluted in 250 microliters fresh serum-free media was added to the cells and incubated at 37° C. for 30 min. The viability of cells was assessed by performing a fluorescence well scan using the CLARIOStar well-plate reader. The measured fluorescence was normalized to the control to determine the percent viability.\nTo assess the coupled effects of genome editing and drug inhibition, the H1299 cells with a pCRISPR targeting RAF1 or a control sgRNA were transfected and 15 micromolar sorafenib tosylate was added on day 2. […]\nFour conditions were tested by acquiring fluorescent measurements over 7 days to assess proliferation. […] All readings were taken in triplicate and error bars represent +/−1 s.d."}, "[4]": {"test": "On-chip beta-glucosidase colorimetric assay, blue channel pixel intensity (image-based feedback system)", "format": "biochemical, Thermobaculum terrenum", "protocol": "The assay on-chip included three different solutions loaded onto the DMF device reservoirs. First, a unit droplet of cell lysate was dispensed and actuated to each of the four assay mixing areas (see FIG. 5 for DMF design) using a starting voltage of 230 VRMS at 15 kHz. The lysate was prepared from a colony of BL21(DE3) transformed with a plasmid containing beta-glucosidase (BGL) gene (see FIG. 6 and FIG. 7 for plasmid map and sequence (SEQ ID NO: 1) respectively) that was grown at 37° C. and induced at 0.4 O.D (˜1.75 h starting at 0.1 O.D). The assay started by the addition of a droplet containing substrate to a droplet of cell lysate. The substrate solution contained 50 mM sodium citrate at pH 7.0 and 4 mM 4-nitrophenyl beta-D-glucopyranoside (MUG). The reactions were incubated at different times (0, 40, 80, and 120 min) and arrested by the addition of a unit droplet of 0.3 M Glycine-NaOH on the assay areas on the device. Solutions contained 0.05% final concentration of F-68 Pluronics. […]\nThe typical model for analyzing kinetics of a beta-glucosidase enzyme is to use a chromogenic model substrate para-nitrophenyl-beta-glucoside (pNPG) that will produce glucose and para-nitrophenol upon hydrolysis (FIG. 14). The liberation of para-nitrophenol (pNP) gives a yellow color product which can be monitored by an image-based feedback system. […]"}, "[5]": {"test": "BGL off-chip assay in well plate, absorbance at 405 nm", "format": "biochemical, Thermobaculum terrenum", "conditions": "well-plate reader", "experimental": "Referring to FIG. 16, there is shown off-chip enzymatic assay with an absorbance readout as a function of time were collected every 30 min. Nine reactions containing equal volume of lysate with enzyme and substrate were mixed in a well of a 96 well plate. At 30 min intervals, the reaction was arrested by glycine-NaOH solution and an absorbance measurement was acquired from the product formation of pNP which gave a yellow color. Each experiment was repeated three times, and error bars are +/−1 SD.\nProtein expression. The plasmid containing the cloned BGL1 gene was first transformed into E. coli BL21(DE3) for recombinant expression. The transformed cells were inoculated overnight in a 5 mL pre-culture. The following day, the culture was diluted to OD 0.05 in a 100 mL starter culture and grown at 37° C. with 200 rpm shaking. Upon reaching OD 0.4, expression of the BGL1 gene was induced by addition of 1 mM IPTG and induction was carried out under the same growth conditions for 8 hours. […]\nBGL off-chip assay. […] Absorbance at 405 nm was immediately acquired after stopping each reaction on a TECAN infinite M200 plate reader with the following settings: 9 nm bandwidth, single reads per well, 25 flashes per reading, and 0 ms of settle time. Reactions with absorbance units >4 were diluted and the final absorbance was calculated from the diluted sample. […]"}}, "note": "Structures can show the parent of a compound that is named as a salt. Where two headings read alike, the source gives them in different places.", "data": [{"molecule": "CC(C)S[C@@H]1O[C@H](CO)[C@H](O)[C@H](O)[C@H]1O", "note": "[IPTG, isopropyl beta-D-1-thiogalactopyranoside]", "values": [{"measurement": "IPTG concentration at which protein production was constant (comparable to basal levels)", "setting": "[1]", "result": "< 30", "unit": "µM"}, {"measurement": "IPTG concentration giving highest protein production", "setting": "[1]; induced at OD 0.4", "result": "above 200 micromolar"}]}, {"molecule": "CNC(=O)c1cc(Oc2ccc(NC(=O)Nc3ccc(Cl)c(C(F)(F)F)c3)cc2)ccn1", "note": "[sorafenib, sorafenib tosylate]", "values": [{"measurement": "IC50", "setting": "H1299 cells [2]; NCI-H1299, read-out: inhibitory sorafenib concentration achieving half-maximal viability level (IC50), on-chip, cells transfected with pCRISPR targeting RAF1, fitted sigmoid curve", "result": 13.2, "unit": "µM"}, {"measurement": "IC50", "setting": "H1299 cells [2]; NCI-H1299, read-out: inhibitory sorafenib concentration achieving half-maximal viability level (IC50), on-chip, control (guide targeting eGFP), fitted sigmoid curve", "result": 7.54, "unit": "µM"}, {"measurement": "sensitivity in the linear micromolar range", "setting": "H1299 cells [2]; edited H1299 cells with CRISPR-mediated RAF1 targeting", "result": "7 to 35", "unit": "µM"}, {"measurement": "fold reduction of IC50 with pCRISPR targeting RAF1 versus control", "setting": "H1299 cells [2]; on-chip", "result": "~1.8", "unit": "fold"}, {"measurement": "basal viability level", "setting": "H1299 cells [3]", "result": "~25", "unit": "%"}]}, {"molecule": "B1", "values": [{"measurement": "first order rate constant kDMF", "setting": "[4]", "result": 0.167, "unit": "h⁻¹"}, {"measurement": "first order rate constant kPLATE", "setting": "[5]", "result": 0.504, "unit": "h⁻¹"}]}]}
